From US8981068B2, “Compositions of standardized mixtures for determining an amount of a nucleic acid” (Gene Express, Inc., priority 2005, dated 2015) come the findings set out here.

For data set [1], the system named is cytochrome p450 (CYP) IAI gene. Nature of the data set: MC RT-PCR with Celi competitive templates: induction of CYPIAI gene expression in β-napthoflavone-exposed BEP2D cells. The class given is cell-based, human. To be noted: β-napthoflavone 10 μM, varying times, control 0.1% DMSO, cDNA loading matched by GAPDH native/competitive template bands. As to the method:
(§1) In a second set of experiments, multiplex competitive reverse transcriptase polymerase chain reaction (MC RT-PCR) with competitive templates were prepared by the Celi method to evaluate the cytochrome p450 (CYP) IAI gene in β-napthoflavone-exposed BEP2D cells. The induction of CYPIAI gene expression was evaluated using both MC RT-PCR with Celi competitive templates, and Northern analysis. Competitive templates were prepared for both the CYPIAI and GAPDH genes. The primers used to prepare the competitive template for GAPDH were: […]
The PCR amplification conditions were the same as described for experiments using the competitive templates prepared for GAPDH and GSHPx by the Higuchi method except the annealing temperature was 55 degrees centigrade and the amplification was carried out for 38 cycles.
Because the native and competitive templates separate without prior restriction endonuclease digestion, samples were taken directly from the PCR reaction tube and applied to ethidium bromide stained 3% Nusieve, 1% LE agarose gels. It was then possible to quantify the products by taking a negative photograph of the gel using Polaroid 665 positive/negative instant film, subjecting the negative photograph to densitometry. […]

For data set [2], the system named is cytochrome p450 IA1 (CYPIA1). Nature of the data set: Northern analysis of CYPIAI gene expression in β-napthoflavone-exposed BEP2D cells. The class given is cell-based, human. The settings on record: β-napthoflavone 10 μM, varying times, control 0.1% DMSO, 32P-labeled CYPIAI cDNA probe. As to the method: as §1
RNA from BEP2D cells incubated for varying times with β-napthoflavone (10 μM) was either electrophoresed on a 1% LE formaldehyde denaturing gel for Northern analysis or MC RT-PCR amplified, as described above. For Northern analysis, following transfer of the RNA to GeneScreen, the filters were hybridized with ^32P-labeled CYPIAI cDNA.

Take `O=c1cc(-c2ccccc2)oc2ccc3ccccc3c12` [β-napthoflavone]: in data set [1], the “band representing the native CYPIAI gene, exposed cells compared to control cells” value is given as “much more strongly represented”. For the same compound, in data set [2], the “CYPIAI gene expression by Northern analysis” value was “increase”.
